According to PubChem BioAssay (NCI):
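1) Cells in 96-well plates. 2) Compound, 48 h, 5 concentrations. 3) Linear interpolation between surrounding doses. 4) Unreached endpoint = highest concentration. GI50 is the concentration that inhibits growth by half. Definition used: TGI = concentration required for complete inhibition of growth.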

What was measured:
Assay in all cases: NCI anticancer screen, dose series, 48 h; in the data active means GI50 below about 0.43 µM; inactive means the rest
[1] = system: MCF7 breast
[2] = system: A498 renal
[3] = system: SNB-19 CNS
[4] = system: MDA-MB-231 breast
[5] = system: COLO 205 colon
[6] = system: RXF 393 renal
[7] = system: A549 NSCLC
[8] = system: UACC-257 melanoma
[9] = system: NCI-H522 lung
[10] = system: HCT-15 colon
[11] = system: SW-620 colon
[12] = system: OVCAR-5 ovarian
[13] = system: NCI/ADR-RES ovarian
[14] = system: OVCAR-4 ovarian
[15] = system: SK-OV-3 ovarian
[16] = system: UO-31 renal
[17] = system: NCI-H460 lung
[18] = system: BT-549 breast
[19] = system: 786-0 renal
[20] = system: IGROV1 ovarian
[21] = system: PC-3 prostate
[22] = system: LOX IMVI melanoma
[23] = system: U251 CNS
[24] = system: CAKI-1 renal
[25] = system: NCI-H226 lung
[26] = system: EKVX NSCLC
[27] = system: CCRF-CEM leukemia
[28] = system: TK-10 renal
[29] = system: OVCAR-8 ovarian

COc1cc2nccc(Oc3ccc(NC(=O)C4(C(=O)Nc5ccc(F)cc5)CC4)cc3)c2cc1Oc1ccc(N)cn1
4.72 µM: TGI [6]
9.32 µM: TGI [16]
3.49 µM: TGI [22]
3.94 µM: TGI [20]
51.3 µM: TGI [8]
4.33 µM: TGI [2]
9.05 µM: TGI [7]
9.07 µM: TGI [25]
16.6 µM: TGI [23]
18.7 µM: TGI [17]
5.48 µM: TGI [24]
inactive: GI50 [1] 2.28 µM | GI50 [2] 1.6 µM | GI50 [3] 4.49 µM | GI50 [4] 2.44 µM | GI50 [5] 2.13 µM | GI50 [6] 1.72 µM | GI50 [7] 2.38 µM | GI50 [8] 2.74 µM | GI50 [9] 2.25 µM | GI50 [10] 3.04 µM | GI50 [11] 2.57 µM | GI50 [12] 2.49 µM | GI50 [13] 3.83 µM | GI50 [14] 3.73 µM | GI50 [15] 3.52 µM | GI50 [16] 2.36 µM | GI50 [17] 3.26 µM | GI50 [18] 3.8 µM | GI50 [19] 3.6 µM | GI50 [20] 1.36 µM | GI50 [21] 3.12 µM | GI50 [22] 1.75 µM | GI50 [23] 2.82 µM | GI50 [24] 1.85 µM | GI50 [25] 1.5 µM | GI50 [26] 3.21 µM | GI50 [27] 3.95 µM | GI50 [28] 3.65 µM | GI50 [29] 3.77 µM
8.42 µM: TGI [4]
94.7 µM: TGI [19]
5.64 µM: TGI [5]
> 100 µM: TGI [1] | TGI [3] | TGI [10] | TGI [11] | TGI [13] | TGI [14] | TGI [15] | TGI [18] | TGI [21] | TGI [26] | TGI [27] | TGI [28] | TGI [29]
12.7 µM: TGI [9]
39 µM: TGI [12]
